From ChEMBL document CHEMBL1201862, “PubChem BioAssay data set” (2004)
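How tested: cells in 96-well plates exposed to compound for 48 hours at five concentrations. GI50 = concentration required for 50% inhibition of growth.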 The source made the active and inactive calls. No stated cut-off is given here; in the data, active = GI50 up to about 1.1 µM and inactive = higher.

Columns and labels:
Test in all cases: DTP human tumour cell line panel, 48 h
KM12 = system: KM12
SF-539 = system: SF-539
OVCAR-8 = system: OVCAR-8
MCF7 = system: MCF7
NCI/ADR-RES = system: NCI/ADR-RES
A549 = system: A549
HCT-116 = system: HCT-116
K562 = system: K562
U-251 = system: U-251
HOP-92 = system: HOP-92
Hs-578T = system: Hs-578T
HCT-15 = system: HCT-15
OVCAR-4 = system: OVCAR-4
NCI-H460 = system: NCI-H460
PC-3 = system: PC-3
RPMI-8226 = system: RPMI-8226
UO-31 = system: UO-31
HCC 2998 = system: HCC 2998
SNB-19 = system: SNB-19
CAKI-1 = system: CAKI-1

SMILES | GI50 (KM12) | GI50 (SF-539) | GI50 (OVCAR-8) | GI50 (MCF7) | GI50 (NCI/ADR-RES) | GI50 (A549) | GI50 (HCT-116) | GI50 (K562) | GI50 (U-251) | GI50 (HOP-92) | GI50 (Hs-578T) | GI50 (HCT-15) [µM] | GI50 (OVCAR-4) | GI50 (NCI-H460) | GI50 (PC-3) | GI50 (RPMI-8226) | GI50 (UO-31) | GI50 (HCC 2998) | GI50 (SNB-19) | GI50 (CAKI-1)
Nc1c(Cl)ncnc1NCC1(CO)CCC1 | > 100 µM (inactive) | > 100 µM (inactive) | > 100 µM (inactive) | > 100 µM (inactive) | > 100 µM (inactive) | > 100 µM (inactive) | > 100 µM (inactive) | > 100 µM (inactive) | > 100 µM (inactive) | > 100 µM (inactive) | > 100 µM (inactive) | > 100 | > 100 µM (inactive) | > 100 µM (inactive) | > 100 µM (inactive) | > 100 µM (inactive) | > 100 µM (inactive) | – | – | –
Cc1ccccc1Nc1cn(COCc2ccccc2)c(=O)[nH]c1=O | 57.5 µM (inactive) | – | – | > 100 µM (inactive) | 40.2 µM (inactive) | 81.3 µM (inactive) | 49.7 µM (inactive) | > 100 µM (inactive) | > 100 µM (inactive) | > 100 µM (inactive) | 54.3 µM (inactive) | > 100 | 39.5 µM (inactive) | 69.5 µM (inactive) | 38.4 µM (inactive) | > 100 µM (inactive) | 52.4 µM (inactive) | > 100 µM (inactive) | > 100 µM (inactive) | > 100 µM (inactive)
Cc1ccc(S(=O)(=O)Oc2nc3ccccc3nc2N(S(=O)(=O)c2ccc(C)cc2)S(=O)(=O)c2ccc(C)cc2)cc1 | 33.7 µM (inactive) | 29 µM (inactive) | 52.2 µM (inactive) | 84.1 µM (inactive) | 40.2 µM (inactive) | 85.1 µM (inactive) | 36.3 µM (inactive) | > 10 µM (inactive) | 39.9 µM (inactive) | – | 63.1 µM (inactive) | 31 | – | 28.7 µM (inactive) | 38.4 µM (inactive) | 32.1 µM (inactive) | 61.8 µM (inactive) | 0.625 µM (active) | 66.8 µM (inactive) | 72.4 µM (inactive)
COc1c(Cl)ccc(Cl)c1C(=O)NNC(=O)c1c(Cl)c(Cl)c(Cl)c(Cl)c1-c1nc2cc(C(=O)c3ccccc3)ccc2[nH]1 | 80.5 µM (inactive) | > 100 µM (inactive) | 72.9 µM (inactive) | 44.4 µM (inactive) | > 100 µM (inactive) | 56 µM (inactive) | 66.7 µM (inactive) | 26.7 µM (inactive) | 53.2 µM (inactive) | 52.6 µM (inactive) | 54.1 µM (inactive) | 35 | 44.9 µM (inactive) | – | 37.8 µM (inactive) | 24.2 µM (inactive) | 60.4 µM (inactive) | – | > 100 µM (inactive) | 95.3 µM (inactive)
c1csc(-c2ccc(-c3cccs3)c3nsnc23)c1 | 0.327 µM (active) | 24.4 µM (inactive) | 19.7 µM (inactive) | 0.11 µM (active) | > 49.5 µM (inactive) | 33.9 µM (inactive) | 19.8 µM (inactive) | 9.68 µM (inactive) | 30.2 µM (inactive) | 35 µM (inactive) | 16.5 µM (inactive) | 0.261 | 0.608 µM (active) | 21.1 µM (inactive) | > 54 µM (inactive) | 12.2 µM (inactive) | 43.4 µM (inactive) | – | > 90.8 µM (inactive) | > 59.8 µM (inactive)
CC(C)(C)NC(=S)N/N=C/c1ccccn1 | 1.94 µM (inactive) | 3.28 µM (inactive) | 0.612 µM (active) | < 0.01 µM (active) | 0.0343 µM (active) | 2.13 µM (inactive) | < 0.01 µM (active) | < 0.01 µM (active) | 0.357 µM (active) | 2.65 µM (inactive) | > 32.2 µM (inactive) | < 0.0159 | – | 0.968 µM (active) | < 0.0164 µM (active) | < 0.0106 µM (active) | 0.259 µM (active) | 6.84 µM (inactive) | 7.36 µM (inactive) | < 0.0118 µM (active)
O=C(Nc1ccn(C2CCC(CO)O2)c(=O)n1)c1ccccc1 (stereo not given) | > 100 µM (inactive) | > 100 µM (inactive) | > 100 µM (inactive) | > 100 µM (inactive) | > 100 µM (inactive) | > 100 µM (inactive) | > 100 µM (inactive) | > 100 µM (inactive) | > 100 µM (inactive) | – | > 100 µM (inactive) | > 100 | – | – | > 100 µM (inactive) | > 100 µM (inactive) | > 100 µM (inactive) | > 100 µM (inactive) | > 100 µM (inactive) | > 100 µM (inactive)
CN(CCC(=O)O)C1=Nc2ccc(Cl)cc2C(c2ccccc2)=[N+]([O-])C1 | > 100 µM (inactive) | > 100 µM (inactive) | > 100 µM (inactive) | > 100 µM (inactive) | > 100 µM (inactive) | > 100 µM (inactive) | > 100 µM (inactive) | > 100 µM (inactive) | > 100 µM (inactive) | > 100 µM (inactive) | > 100 µM (inactive) | > 100 | 72.1 µM (inactive) | > 100 µM (inactive) | > 100 µM (inactive) | > 100 µM (inactive) | > 100 µM (inactive) | – | > 100 µM (inactive) | 78.5 µM (inactive)
